Experimental data from ChEMBL document CHEMBL1149452 (J Med Chem, 2006).

How the values were obtained:
[1] = molecular target: T1, 17-beta-hydroxysteroid dehydrogenase type 1 (Homo sapiens) (UniProt P14061); experiment: (§1) Inhibition of 17-beta HSD1 in T47D cells; type: functional, cell-based
T1 sequence (whole entry): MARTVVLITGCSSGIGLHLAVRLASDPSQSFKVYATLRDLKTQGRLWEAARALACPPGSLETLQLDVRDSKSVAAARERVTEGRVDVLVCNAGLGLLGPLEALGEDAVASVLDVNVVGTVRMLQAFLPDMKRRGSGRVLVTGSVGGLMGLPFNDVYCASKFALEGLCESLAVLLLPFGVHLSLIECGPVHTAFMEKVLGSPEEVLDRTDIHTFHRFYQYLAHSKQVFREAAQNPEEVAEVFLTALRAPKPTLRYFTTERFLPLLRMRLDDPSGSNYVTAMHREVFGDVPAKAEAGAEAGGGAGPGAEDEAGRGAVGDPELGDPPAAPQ

[2] = molecular target: T2, 17-beta-hydroxysteroid dehydrogenase type 1 (Homo sapiens, UniProt P14061); experiment: as §1; type: functional, cell-based
T2 sequence (P14061 whole entry): T1 sequence (whole entry)

SMILES	IC50 [1] [nM]	IC50 [2] [nM]
C[C@]12CCC3c4ccc(O)cc4C(=O)CC3C1CC(C=O)=C2O (stereo not given in full)	700	
C[C@]12CC[C@@H]3c4ccc(O)cc4CC[C@H]3[C@@H]1C/C(=C\c1ccncc1)[C@@H]2O		4100
C[C@]12CC[C@@H]3c4ccc(O)cc4/C(=N\O)C[C@H]3[C@@H]1CC/C2=N\O		1900
C[C@]12CC[C@@H]3c4ccc(O)cc4C(=O)C[C@H]3[C@@H]1CCC2=O		340
C[C@]12CC[C@@H]3c4ccc(O)cc4CC[C@H]3[C@@H]1CC(CC(=O)NCC1CCCO1)C2=O (stereo not given in full)		380
CCOC[C@H]1C[C@H]2[C@@H]3CCc4cc(O)ccc4[C@H]3CC[C@]2(C)C1=O		320
C[C@]12CC[C@@H]3c4ccc(O)cc4CC[C@H]3[C@@H]1CC(C(=O)NCc1cccnc1)[C@@H]2O (stereo not given in full)		510
CCOC(=O)CC1C[C@H]2[C@@H]3CCc4cc(O)ccc4[C@H]3CC[C@]2(C)C1=O (stereo not given in full)		300
CC(NC(=O)C1C[C@H]2[C@@H]3CCc4cc(O)ccc4[C@H]3CC[C@]2(C)[C@H]1O)c1ccccc1 (stereo not given in full)		810
CNC(=O)CC1C[C@H]2[C@@H]3CCc4cc(O)ccc4[C@H]3CC[C@]2(C)C1=O (stereo not given in full)		1500
